Measurements published in DBAASP.
In brackets after ≈: the same amount, converted by molar mass. Blank lines part the entries; values can stand above or below the molecule they belong to.

Tests used:
Test in all cases: ≥ marks a high value that may be exact or a test limit, other limits are often not marked, values filed in µg/mL are converted to µM
[1] = system: Staphylococcus aureus ATCC 6538P
Trichoderma harzianum = system: Trichoderma harzianum
Pachysolen tannophilus = system: Pachysolen tannophilus
Micrococcus luteus = system: Micrococcus luteus
[2] = system: Escherichia coli ATCC 25922
Kluyveromyces marxianus = system: Kluyveromyces marxianus
Aspergillus niger = system: Aspergillus niger
Candida albicans = system: Candida albicans
[3] = system: Pseudomonas aeruginosa ATCC 27853
[4] = system: Staphylococcus aureus ATCC 49476
Staphylococcus aureus MR = system: Staphylococcus aureus MR
[5] = system: Staphylococcus aureus ATCC 29231
[6] = system: Klebsiella aerogenes ATCC 13048
[7] = system: Staphylococcus aureus MW2
[8] = system: Acinetobacter baumannii ATCC 7978
[9] = system: Candida albicans ATCC 10231
[10] = system: Pseudomonas aeruginosa PA14
[11] = system: Enterococcus faecium E007

MIC [1]: 8 µM (≈ 39.5 µg/mL)
MIC (Trichoderma harzianum): 2.9 µM (≈ 14.3 µg/mL)
MIC (Pachysolen tannophilus): 2.9 µM (≈ 14.3 µg/mL)
MIC (Micrococcus luteus): 1.9 µM (≈ 9.39 µg/mL)
MIC [2]: 1 µM (≈ 4.94 µg/mL)
MIC (Kluyveromyces marxianus): 2.9 µM (≈ 14.3 µg/mL)
MIC (Aspergillus niger): 2.9 µM (≈ 14.3 µg/mL)
MIC (Candida albicans): 2.9 µM (≈ 14.3 µg/mL)
SMILES: CC[C@H](C)[C@H](NC(=O)[C@H](CC(C)C)NC(=O)[C@H](CCCCN)NC(=O)[C@@H](N)CC(=O)O)C(=O)NCC(=O)N[C@@H](CO)C(=O)N[C@H]1CSSC[C@@H]2NC(=O)[C@H](Cc3cnc[nH]3)NC(=O)CNC(=O)CNC(=O)[C@H](CCCCN)NC(=O)[C@H](Cc3ccc(O)cc3)NC(=O)CNC(=O)[C@H](CCCN=C(N)N)NC(=O)[C@H](CCCN=C(N)N)NC(=O)[C@H](CCCCN)NC(=O)[C@@H]3CSSC[C@@H](C(=O)N[C@@H](CCC(=O)O)C(=O)N[C@@H](CCC(=O)O)C(=O)O)NC(=O)[C@H](Cc4c[nH]c5ccccc45)NC(=O)[C@H](CSSC[C@H](NC(=O)[C@H](CC(=O)O)NC(=O)[C@H](CO)NC(=O)[C@H]([C@@H](C)O)NC(=O)[C@H](Cc4ccc(O)cc4)NC(=O)[C@H](CC(N)=O)NC(=O)[C@H]([C@@H](C)O)NC(=O)[C@H](C)NC(=O)CNC(=O)[C@H](Cc4c[nH]c5ccccc45)NC(=O)[C@H](C(C)C)NC1=O)C(=O)N[C@@H](CC(N)=O)C(=O)N[C@@H](C)C(=O)N[C@@H](CCC(=O)O)C(=O)N3)NC(=O)[C@H](CC(N)=O)NC(=O)[C@H](C(C)C)NC(=O)[C@H](CC(N)=O)NC(=O)[C@H](Cc1c[nH]c3ccccc13)NC(=O)[C@H](Cc1ccccc1)NC(=O)[C@H](CO)NC(=O)CNC2=O [DKLIGSCVWGATNYTSDCNAECKRRGYKGGHCGSFWNVNCWCEE]

MIC [3]: > 217 µM
MIC [4]: 27.2 µM (≈ 64 µg/mL)
MIC (Staphylococcus aureus MR): ≥ 109 µM
MIC (Candida albicans): 54.3 µM (≈ 128 µg/mL)
SMILES: CC[C@H](C)[C@H](NC(=O)[C@H](C)NC(=O)[C@H](CCCCN)NC(=O)CNC(=O)[C@H](C)NC(=O)[C@H](CO)NC(=O)[C@H](Cc1ccccc1)NC(=O)[C@H](CC(C)C)NC(=O)CNC(=O)CNC(=O)[C@@H](NC(=O)[C@@H](NC(=O)[C@H](Cc1cnc[nH]1)NC(=O)[C@H](Cc1cnc[nH]1)NC(=O)[C@@H](NC(=O)[C@@H](N)Cc1ccccc1)[C@@H](C)CC)[C@@H](C)CC)[C@@H](C)CC)C(=O)N[C@@H](Cc1cnc[nH]1)C(=O)N[C@@H](CCCN=C(N)N)C(=O)N[C@@H](CC(C)C)C(=O)N[C@H](C(=O)N[C@@H](CCCN=C(N)N)C(=O)O)[C@@H](C)CC [FIHHIIGGLFSAGKAIHRLIR]

MIC [5]: 14.3 µM (≈ 32 µg/mL)
MIC [6]: ≥ 57.2 µM
MIC [7]: 28.6 µM (≈ 64 µg/mL)
MIC [8]: ≥ 57.2 µM
MIC [9]: 28.6 µM (≈ 64 µg/mL)
SMILES: CC[C@H](C)[C@H](NC(=O)[C@H](CCCCN)NC(=O)[C@H](CCCCN)NC(=O)[C@H](CC(C)C)NC(=O)[C@@H](NC(=O)[C@H](CCCCN)NC(=O)[C@H](Cc1c[nH]c2ccccc12)NC(=O)[C@@H](N)CC(C)C)[C@@H](C)CC)C(=O)N[C@@H](Cc1c[nH]c2ccccc12)C(=O)N[C@@H](CCCN=C(N)N)C(=O)N[C@H](C(=O)N[C@@H](CC(C)C)C(=O)N[C@@H](Cc1c[nH]c2ccccc12)C(=O)N[C@@H](CC(N)=O)C(=O)N[C@@H](Cc1c[nH]c2ccccc12)C(=O)N[C@@H](CCCN=C(N)N)C(=O)O)C(C)C [LWKILKKIWRVLWNWR]

MIC [10]: 14.2 µM (≈ 32 µg/mL)
MIC [5]: 7.09 µM (≈ 16 µg/mL)
MIC [11]: ≥ 56.7 µM
MIC [6]: 28.4 µM (≈ 64 µg/mL)
MIC [9]: 14.2 µM (≈ 32 µg/mL)
SMILES: CC[C@H](C)[C@H](NC(=O)[C@H](CCCCN)NC(=O)[C@H](CCCCN)NC(=O)[C@H](Cc1c[nH]c2ccccc12)NC(=O)[C@@H](NC(=O)[C@H](CCCCN)NC(=O)[C@H](Cc1c[nH]c2ccccc12)NC(=O)[C@@H](N)CC(C)C)[C@@H](C)CC)C(=O)N[C@@H](Cc1c[nH]c2ccccc12)C(=O)N[C@@H](CCCN=C(N)N)C(=O)N[C@H](C(=O)NCC(=O)N[C@@H](Cc1c[nH]c2ccccc12)C(=O)N[C@@H](CC(N)=O)C(=O)N[C@@H](Cc1c[nH]c2ccccc12)C(=O)N[C@@H](CCCN=C(N)N)C(=O)O)C(C)C [LWKIWKKIWRVGWNWR]
